From patent US20240124467A1, “FUSED PYRIMIDINE COMPOUNDS AS INHIBITORS OF MENIN-MLL INTERACTION” (Biomea Fusion, Inc., priority 2020, published 2024)
pIC50: −log10 of the molar value. Like-named read-outs stand apart in the source and are kept apart here.

Tests used:
Format in all cases: cell-based
[1] = system: MV4-11; test: Cell proliferation inhibition (CellTiter-Glo), MV4-11 cells; settings: Homo sapiens, MV4-11 (MLL-AF4), Table 3
How it was run: (§1)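 Leukemia lines in RPMI-1640/10% FBS at 37° C. were exposed in duplicate to seven compound concentrations (5.00×10^−6 to 6.86×10^−9 M), with 0.2% DMSO as 100% proliferation. At day 4 cells were diluted 1:4 in fresh medium containing compound. Viability was read by CellTiter-Glo luminescence at day 4 and day 7.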

[2] = system: U-937; test: Cell proliferation inhibition (CellTiter-Glo), U-937 cells; settings: Homo sapiens, U-937 (MLL-wt), Table 3
Experimental: (§2) The present example evaluates the ability of compounds described herein, inhibitors of Menin/MLL interaction, to inhibit cell proliferation. The proliferation inhibitory effect was investigated in human MLL-leukemia cells selected on the bases of MLL fusion proteins and listed in the table below.
(§3) ATP is present in all metabolically active cells and is considered as a marker for cell viability and proliferation. The metabolic cell activity was determined using the CellTiter-Glo kit from Promega, an ATP monitoring system based on the production of luminescence by the reaction of ATP with added UltraGlo® recombinant luciferase (Kawano et al., 2016, PLOS One, 8:11(7):e0158888), according to the supplier's experimental recommendations. The assay is based on a 96 well plate format. All experiments were carried out in duplicate in one test occasion.
(§4) Test items were dissolved at 20 mM in DMSO with purity ≥99.9% (Sigma catalog no. D8418) and stored at −20° C. Cells were maintained in RPMI-1640 medium (Invitrogen catalog no. 618700) supplemented with 10% of Heat Inactivated FBS (Invitrogen catalog no. 10500) and 1% Pen-Strep (Invitrogen catalog no. 15140) and cultured at 37° C. in a humidified incubator with 5% CO2. Cell lines were grown in suspension and the cell density was maintained in a range of 5×10^4-1×10^6 viable cells/ml where possible. Cells were pelleted at 130 g×5 min.
(§5) Serial dilutions of compounds 1 to 3 in DMSO 100% were prepared starting from a 2.5 mM solutions (prepared by diluting 1:8 the 20 mM stock solution) to generate a 7 point concentration response curve (CRC). Seven concentrations of test compounds (e.g., 5.00×10^−6-1.67×10^−6-5.56×10^−7-1.85×10^−7-6.17×10^−8-2.06×10^−8-6.86×10^−9 M) were assessed in duplicate in an individual test occasion in parallel in the selected cell lines. KO-539 was used as a reference compound and tested in duplicate at seven similar concentrations. 100% of proliferation was represented by the untreated cells (0.2% DMSO).
(§6) Cell proliferation inhibition was monitored at both the following end points: Day 4 (T4) and Day 7 (T7). For the appropriate cell density during the exponential cell growth and re-supply with fresh compound solution at T4, cells were diluted (1:4) with fresh medium containing the compound concentration (1×).
(§7) For each plate to test, one 0.4 μL copy plate and four 0.3 μL copy plates were stamped into 96-well plates not treated for cell adhesion (Sarstedt—cat. no. 82.1581.001) by acoustic liquid handling (Echo) at a concentration which was 500 fold the final assay concentration. Stamped plates were stored at −20° C.
(§8) On Day 0, the day of the experiment cell line suspensions were counted by Cell Viability Analyser, Vi-CELL (Beckman Coulter AY15292), and diluted with fresh medium to obtain the following cell densities: K-562 500 c/ml, MOLM-13 1,000 c/ml, MV4-11 10,000 c/ml, OCI-AML-3 500 c/ml, and U-937 500-1,000 c/ml. 200 μL/well and 150 μL/well of cell suspension were added into the 0.4 μL/well and 0.3 μL/well compound plates, respectively. Cell plate containing 200 μL/well suspension were incubated at 37° C. in a humidified incubator with 5% CO2. From each well of the 150 μL/well cell assay plate, 100 μL were harvested and transferred into a 96-well Optiplate (Perkin Elmer, cat. no. 6005290). Cell viability was measured as described below.
(§9) On Day 4, 150p/well of fresh medium was added into a new 0.3 μL/well copy compound plates. From each well of the 200 μL/well cell assay plate, 100 μL was sampled for the cell viability measurement as described below. 50p was harvested and added to the 150p/well compound plate prepared as described in the first point to dilute 1:4 the cell suspension. The cell assay plate diluted and containing 200 μL/well suspension was incubated at 37° C. in a humidified incubator with 5% CO2.
(§10) On Day 4, 150p/well of fresh medium was added into a new 0.3 μL/well copy compound plates. […]

[3] = system: MOLM-13; test: Cell proliferation inhibition (CellTiter-Glo), MOLM-13 cells; settings: Homo sapiens, MOLM-13 (MLL-AF9), Table 3
How it was run: as §1

[4] = system: K-562; test: Cell proliferation inhibition (CellTiter-Glo), K-562 cells; settings: Homo sapiens, K-562 (BCR-ABL), Table 3
How it was run: as §1

[5] = system: OCI-AML3; test: Cell proliferation inhibition (CellTiter-Glo), OCI-AML3 cells; settings: Homo sapiens
Experimental: as §2, §3, §4, §5, §6, §7, §8, §9, §10

[6] = 96 h, 4 d, read-out: MV4-11 IC50 μM 4 d
[7] = 168 h, 7 d, read-out: MV4-11 IC50 μM 7 d
[8] = 96 h, 4 d, read-out: U-937 IC50 μM 4 d
[9] = 168 h, 7 d, read-out: U-937 IC50 μM 7 d
[10] = 96 h, 4 d, read-out: MOLM13 μM 4 d
[11] = 168 h, 7 d, read-out: MOLM13 μM 7 d
[12] = K562, 96 h, 4 d, read-out: K-562 IC50 μM 4 d
[13] = K562, 168 h, 7 d, read-out: K-562 IC50 μM 7 d
[14] = OCI-AML-3, 96 h, 4 d, Table 3, read-out: OCI-AML3 IC50 μM 4 d
[15] = OCI-AML-3, 168 h, 7 d, Table 3, read-out: OCI-AML3 IC50 μM 7 d

| SMILES | IC50 [1, 6] | IC50 [1, 7] | IC50 [2, 8] | IC50 [2, 9] | pIC50 [3, 10] | pIC50 [3, 11] | IC50 [4, 12] | IC50 [4, 13] | IC50 [5, 14] | IC50 [5, 15] |
| --- | --- | --- | --- | --- | --- | --- | --- | --- | --- | --- |
| C=CC(=O)Nc1ccc(CC(=O)Nc2ccc(-c3cc4c(N5CCOCC5)ncnc4[nH]3)cc2)nc1 [Compound B0700-314, N-(6-(2-((4-(4-morpholino-7H-pyrrolo[2,3-d]pyrimidin-6-yl)phenyl)amino)-2-oxoethyl)pyridin-3-yl)acrylamide] | 0.145 µM | 0.129 µM | 0.288 µM | 0.158 µM | 6.72 | 6.75 | 0.55 µM | 0.468 µM | 0.145 µM | 0.095 µM |
| O=C(/C=C/CN1CC(F)C1)Nc1ccc(CC(=O)Nc2ccc(-c3cc4c(N5CCOCC5)ncnc4[nH]3)cc2)cc1 [Compound B0700-312, (E)-4-(3-fluoroazetidin-1-yl)-N-(4-(2-((4-(4-morpholino-7H-pyrrolo[2,3-d]pyrimidin-6-yl)phenyl)amino)-2-oxoethyl)phenyl)but-2-enamide] | 1.62 µM | 1 µM | > 5 µM | > 5 µM | 5.63 | 6.27 | > 5 µM | > 5 µM | > 5 µM | 1.95 µM |
| C=CC(=O)Nc1ccc(CC(=O)Nc2ccc(-c3cc4c(C)ncnc4[nH]3)cc2)cc1 [Compound B0700-313, N-(4-(2-((4-(4-methyl-7H-pyrrolo[2,3-d]pyrimidin-6-yl)phenyl)amino)-2-oxoethyl)phenyl)acrylamide] | > 5 µM | > 5 µM | > 5 µM | 1.26 µM | < 5.30 | 5.48 | > 5 µM | 0.288 µM | > 5 µM | 0.407 µM |
| C=CC(=O)N1CCCC(Nc2ccnc(C(=O)Nc3ccc(-c4cc5c(N6CCOCC6)ncnc5[nH]4)cc3)c2)C1 (centres unmarked) [Compound B0700-302, 4-((1-acryloylpiperidin-3-yl)amino)-N-(4-(4-morpholino-7H-pyrrolo[2,3-d]pyrimidin-6-yl)phenyl)picolinamide] | 0.098 µM | 0.089 µM | 0.072 µM | 0.037 µM | 7.20 | 7.30 | 0.17 µM | 0.138 µM | 0.043 µM | 0.044 µM |
| C=CC(=O)N(C)[C@@H]1CCCN(Cc2ccnc(C(=O)Nc3ccc(-c4cc5c(N6CCOCC6)ncnc5[nH]4)cc3)c2)C1 [Compound B0700-301, (R)-4-((3-(N-methylacrylamido)piperidin-1-yl)methyl)-N-(4-(4-morpholino-7H-pyrrolo[2,3-d]pyrimidin-6-yl)phenyl)picolinamide] | 0.085 µM | 0.069 µM | 0.105 µM | 0.026 µM | 7.25 | 7.36 | 0.263 µM | 0.191 µM | 0.066 µM | 0.028 µM |
| C=CC(=O)N[C@@H]1CCCN(Cc2ccnc(C(=O)NC3CCN(c4nc5c(N6CCOCC6)ncnc5[nH]4)CC3)c2)C1 [Compound B0700-308, (R)-4-((3-acrylamidopiperidin-1-yl)methyl)-N-(1-(6-morpholino-9H-purin-8-yl)piperidin-4-yl)picolinamide] | > 5 µM | > 5 µM | > 5 µM | > 5 µM | < 5.30 | < 5.30 | > 5 µM | > 5 µM | > 5 µM | > 5 µM |
| C=CC(=O)N1CC(N2CCC(CC(=O)Nc3ccc(-c4cc5c(N6CCOCC6)ncnc5[nH]4)cc3)CC2)C1 [Compound B0700-331, 2-(1-(1-acryloylazetidin-3-yl)piperidin-4-yl)-N-(4-(4-morpholino-7H-pyrrolo[2,3-d]pyrimidin-6-yl)phenyl)acetamide] | 0.047 µM | 0.034 µM | 0.347 µM | 0.065 µM | 7.26 | 7.52 | 0.676 µM | 0.129 µM | 0.251 µM | 0.115 µM |
| C=CC(=O)Nc1ccc(CC(=O)NC2CCN(c3nc4c(N5CCOCC5)ncnc4[nH]3)CC2)cc1 [Compound B0700-315, N-(4-(2-((1-(6-morpholino-9H-purin-8-yl)piperidin-4-yl)amino)-2-oxoethyl)phenyl)acrylamide] | > 5 µM | > 5 µM | > 5 µM | > 5 µM | < 5.30 | < 5.30 | > 5 µM | > 5 µM | > 5 µM | > 5 µM |
| C=CC(=O)N1CC(N2CCC[C@H](NC(=O)Nc3ccc(-c4cc5c(N6CCOCC6)ncnc5[nH]4)cc3)C2)C1 [Compound B0700-332, (S)-1-(1-(1-acryloylazetidin-3-yl)piperidin-3-yl)-3-(4-(4-morpholino-7H-pyrrolo[2,3-d]pyrimidin-6-yl)phenyl)urea] | 0.38 µM | 0.151 µM | 1.2 µM | 0.457 µM | 6.49 | 6.50 | 1.86 µM | 1.66 µM | 0.955 µM | 0.24 µM |
| C=CC(=O)N1CC(N2CCC(NC(=O)Nc3ccc(-c4cc5c(N6CCOCC6)ncnc5[nH]4)cc3)CC2)C1 [Compound B0700-330, 1-(1-(1-acryloylazetidin-3-yl)piperidin-4-yl)-3-(4-(4-morpholino-7H-pyrrolo[2,3-d]pyrimidin-6-yl)phenyl)urea] | 0.646 µM | 0.38 µM | 1.62 µM | 1.05 µM | 6.20 | 6.35 | 4.68 µM | 1 µM | 1.05 µM | 0.813 µM |
| C=CC(=O)N1CCN(CCc2ccnc(C(=O)Nc3ccc(-c4cc5c(N6CCOCC6)ncnc5[nH]4)cc3)c2)CC1 [Compound B0700-303, 4-(2-(4-acryloylpiperazin-1-yl)ethyl)-N-(4-(4-morpholino-7H-pyrrolo[2,3-d]pyrimidin-6-yl)phenyl)picolinamide] | 0.051 µM | 0.05 µM | 0.043 µM | 0.022 µM | 7.31 | 7.47 | 0.085 µM | 0.028 µM | 0.076 µM | 0.05 µM |
